Data on one compound can be found in US5360796A, “Imidazo[1,2-a]pyridinylalkyl phosphonic acid compounds for treatment of neurotoxic injury” (G. D. Searle & Co., priority 1991, dated 1994).

The structures appear in SMILES notation.

One series addresses NMDA receptor. As to the kind of experiment: NMDA-Selective Glutamate Binding Assay (L-[3H]glutamate). Set-up: species or system rat. The conditions noted are these: 12.5 nM L-[3H]glutamate, synaptic plasma membranes, pH 7.4, 0-4° C., 10 min; read-out: NMDA Receptor Binding Data, Ki IC50 Binding NMDA. The method, then:
(§1) Synaptic plasma membranes (SPM) were prepared as previously described [Monahah, J. B. and Michel, J., "Identification and Characterization of an N-methyl-D-aspartate-specific L[^3 H]glutamate Recognition Site in Synaptic Plasma Membranes, J. Neurochem., 48, 1699-1708 (1987)]. The SPM were stored at a concentration of 10-15 mg/ml in 0.32M sucrose, 0.5 mM EDTA, 1 mM MgSO4, 5 mM Tris/SO4, pH 7.4, under liquid nitrogen. The identity and purity of the subcellular fractions were confirmed by both electron microscopy and marker enzymes. Protein concentrations were determined by using a modification of the method of Lowry [Ohnishi, S. T. and Barr, J. K., "A Simplified Method of Quantitating Proteins using the Biuret and Phenol Reagents", Anal. Biochem., 86, 193-197 (1978)]. The SPM were treated identically for the [^3 H]AMPA (QUIS), [^3 H]kainate and sodium-dependent L-[^3 H]-glumatate binding assays. The SPM were thawed at room temperature, diluted twenty-fold with 50mM Tris/acetate, pH 7.4, incubated at 37° C. for 30 minutes, and centrifuged at 100,000 g for 15 minutes. The dilution, incubation, and centrifugation was repeated a total of three times. Prior to use in the NMDA-specific L-[^3 H]-glutamate binding assay the SPM were thawed, diluted twenty fold with 50 mM Tris/acetate, pH 7.4 containing 0.04% (v/v) Triton X-100, incubated for 30 minutes at 37° C. and centrifuged as described above. The Triton X-100 treated membranes were washed with 50 mM Tris/acetate, pH 7.4 and centrifuged at 100,000 g for 15 minutes a total of four times. […] The basic procedure for the receptor subclass binding assays was similar. This general method involved adding the radioligand (12.5 nM L-[^3 H] glutamate; 0.5 nM [^3 H]kainate or 10 nM [^3 H]AMPA) to the appropriate concentration of the test compound and initiating the assay by the addition of ice cold synaptic plasma membranes (0.2-0.45 mg). The binding assays were performed in 1.5 mL centrifuge tubes with the total volume adjusted to 1.0 mL. Additions of test compounds were made in 50 mM Tris/acetate, pH 7.4 and incubations were carried out at 0°-4° C. The incubation time for the NMDA and the AMPA binding assays was 10 minutes, for the kainate binding assay 60 minutes and for the sodium-dependent glutamate binding assay 15 minutes. The AMPA binding assay contained 100 mM KSCN and the sodium-dependent glutamate binding assay contained 150 mM sodium acetate in addition to the previously described reagents. To terminate the incubation, the samples were centrifuged for 15 minutes at 12,000 g and 4° C. in a Beckman Microfuge 12. The supernatant was aspirated and the pelleted membranes dissolved in Beckman BTS-450 tissue solubilizer for a minimum of 6 hours at room temperature. Beckman MP scintillation cocktail containing 7 mL/1 acetic acid was then added and the samples counted on a Beckman LS 5800 or 3801 liquid scintillation counter with automatic corrections for quenching and counting efficiency. Nonspecific binding was defined as the residual binding in the presence of either excess L-glutamate (0.1-0.4 mM), kainate (0.01 mM), or NMDA (0.5 mM), and was 15-25% of the total binding in the NMDA binding assay, 19-27% in the AMPA binding assay, 20-30% in the kainate binding assay and 10-15% in the sodium-dependent binding assay. Radioligand binding to the synaptic plasma membranes was analyzed using Scatchard and Hill transformations and the Ki values of the compounds determined using logit-log transformations. Calculations and regression analysis were performed using templates developed for Lotus 1, 2, 3 as previously described [Pullan, L. M. "Automated Radioligand Receptor Binding Analysis with Templates for Lotus", Computer Appln. Biosci., 3, 131 (1987)]. Binding results are reported in Table I for example compounds of the invention.

In series [1] the target is TCP (1-[1-(2-thienyl)cyclohexyl]piperidine) binding. Description: TCP Modulation Assay. Details: species or system rat. The conditions noted are these: 2 nM tritiated TCP, 0.05 mM L-glutamate, rat brain SPM, pH 7.4, 25° C., 60 min; read-out: TCP Ki IC50. The method, then: The effect on the TCP (1-[1-(2-thienyl)cyclohexyl]piperidine) binding was measured in rat brain synaptic membranes (SPM) prepared as previously described [J. B. Monahah & J. Michel; J. Neurochem. […] Prior to their use in the binding assay, frozen SPM were thawed, diluted twenty fold with 50 mM Tris/acetate (pH 7.4 containing 0.04% (v/v) Triton X-100), incubated for 30 min. at 37° C. and centrifuged at 95,000 xg for 15 min. The Triton X-100 treated SPM were washed with 5 mM Tris/HCl, pH 7.4 and centrifuged a total of six times. […] The samples were filtered through glass fiber filters (Schleicher & Schuell #32) which have been pretreated with 0.05% (v/v) polyethylenimine, washed 4 times with 2 ml of ice-cold 5 mM Tris/HCl buffer, and then counted on a Beckman LS 5800 liquid scintillation counter with automatic corrections for quenching and counting efficiency. Inhibition of TCP binding was measured as a decrease in the binding in the presence of 0.05 mM L-glutamate. Non-specific binding was defined as the residual binding in the presence of […] phencyclidine.

Another series deals with AMPA. Description: [3H]AMPA (QUIS) binding assay. Set-up: species or system rat. As to conditions: 10 nM [3H]AMPA, 100 mM KSCN, synaptic plasma membranes, pH 7.4, 0-4° C., 10 min; read-out: NMDA Receptor Binding Data, Ki IC50 Binding AMPA. The method, then:
as §1

Another series has as its system cGMP in cerebellum. Description: Assay for Effect on cGMP Levels in Cerebellum. Type of series: in vivo, mouse (Swiss-Webster). The method, then: The purpose of this assay is to determine the extent of in vivo bioavailability and the potency as an NMDA antagonist of compound of the invention as compared to known NMDA antagonists, namely, 3(2-carboxypiperizine-4-yl)propyl-1-phosphonic acid (CPP) and cis-4-phosphonomethyl-2-piperidinecarboxylic acid (CGS 19755). Male Swiss-Webster mice (17-24 g were injected sub-cutaneously (s.c.) with compound of the invention and the known NMDA antagonist standards 30 minutes prior to sacrifice by focussed microwave irradiation. Groups consisted of 7-10 mice. Compounds of Ex. #7 was dissolved in isotonic saline and all compounds were administered in a volume of 0.2 ml per mouse. Cerebella samples were extracted in IN HCl. Hydrochloric acid in extracts of the cerebellum were freeze-dried for assay of cGMP with a commercial RIA kit (NEN). Statistics (Dunett's t-test) were performed as described previously [P. L. Wood et al., Neurochem., 19, 975-982 (1980)]. ED50 values were calculated from log-logit transformation of the dose-response data.

A word on the Ki: it is the equilibrium dissociation constant of an inhibitor or competing ligand from its target. Usually ED50 stands for the midpoint of the dose-response relation. For `O=C(O)c1cn2c(CP(=O)(O)O)cccc2n1` [Example 7, 5-(phosphonomethyl)imidazo[1,2-a]pyridine-2-carboxylic acid], the Ki at NMDA receptor is 2.4 µM; in series [1] it was 3.2 µM; at AMPA, more than 300 µM. The median effective dose (ED50) in the series with cGMP in cerebellum (Mus musculus, sc, 0.5 h, 30 min prior to sacrifice, read-out: Decrease in cGMP ED50) was determined as 18.3 mg/kg. Also, in the series on cGMP in cerebellum (by decrease of cGMP in mouse cerebellum, s.c.), the “brain bioavailability (in words)” value is given as “brain bioavailable”. Moreover, the “potency relative to CPP (in words)” value in the series on cGMP in cerebellum (s.c., cerebellar cGMP) is given as “in the same range of potency as the known NMDA antagonist CPP”.
